{"source": "patent US11000033B2", "about": "“Ketone or oxime compound, and herbicide” (NISSAN CHEMICAL CORPORATION, priority 2014, dated 2021)", "format_in_all_cases": "in vivo", "key": {"[1]": {"system": "Amaranthus retroflexus", "experiment": "Test Example 4: herbicidal effect by soil treatment (symbol N)", "settings": "application herbicide amount 320 g/ha", "in_short": "(§1)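 Seeds were sown in sterilized diluvial soil, covered with about 1.5 cm of soil, and the soil surface was sprayed with a water-diluted emulsion of the compound at a predetermined rate. Plants grew in a greenhouse at 25° C. to 30° C.; effects were scored visually 3 weeks after application.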"}, "[2]": {"system": "Leptochloa chinensis", "experiment": "Test Example 3: herbicidal effect by foliage application, Wagner pot (symbol D)", "settings": "application herbicide amount 320 g/ha", "in_short": "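Foliar spray of water-diluted emulsion formulation at a predetermined herbicide amount onto 14-day-old plants in flooded alluvial soil (water depth 0.1–0.5 cm), greenhouse 25–30 °C; rice sown alongside. Scored 3 wk post-application on set criteria.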"}, "[3]": {"system": "Chenopodium album", "experiment": "Test Example 5: herbicidal effect by foliage application, plastic box (symbol O)", "settings": "320 g/ha, 3 weeks after application", "in_short": "(§2)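 Greenhouse foliar test: seedlings at 14 days, grown 25° C. to 30° C. in sterilized diluvial soil; compound applied as an aqueous dilution of an emulsion; response read 3 weeks after spraying.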"}, "[4]": {"system": "Digitaria ciliaris", "experiment": "Test Example 5: herbicidal effect by foliage application, plastic box (symbol F)", "settings": "320 g/ha, 3 weeks after application", "in_short": "as §2"}, "[5]": {"system": "Avena fatua", "experiment": "Test Example 4: herbicidal effect by soil treatment (symbol I)", "settings": "application herbicide amount 320 g/ha", "in_short": "as §1"}, "[6]": {"system": "soybean", "experiment": "Test Example 4: effect on crop by soil treatment (symbol d)", "settings": "application herbicide amount 320 g/ha", "in_short": "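Soil-treatment setup: crop and weed seeds were spot-sown into sterilized diluvial soil, then buried beneath approximately 1.5 cm of it, and the boxes were housed in a 25–30° C. greenhouse.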"}, "[7]": {"system": "Apera spica-venti", "experiment": "Test Example 4: herbicidal effect by soil treatment (symbol L)", "settings": "application herbicide amount 320 g/ha", "in_short": "as §1"}, "[8]": {"system": "rapeseed", "experiment": "Test Example 5: effect on crop by foliage application, plastic box (symbol g)", "settings": "320 g/ha, 3 weeks after application", "in_short": "(§3)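 Sterilized diluvial soil, plastic box (21 × 13 × 7 cm); spot sowing, ~1.5 cm soil cover; greenhouse 25–30° C.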"}, "[9]": {"system": "Veronica persica", "experiment": "Test Example 5: herbicidal effect by foliage application, plastic box (symbol R)", "settings": "320 g/ha, 3 weeks after application", "in_short": "as §2"}, "[10]": {"system": "Setaria viridis", "experiment": "Test Example 4: herbicidal effect by soil treatment (symbol G)", "settings": "application herbicide amount 320 g/ha", "in_short": "as §1"}, "[11]": {"system": "beet", "experiment": "Test Example 5: effect on crop by foliage application, plastic box (symbol f)", "settings": "320 g/ha, 3 weeks after application", "in_short": "as §3"}, "[12]": {"system": "Scirpus juncoides", "experiment": "Test Example 1: herbicidal activity, application before weed generation in submerged conditions (symbol B)", "settings": "application herbicide amount 320 g/ha", "in_short": "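Steps: alluvial soil flooded to 4 cm; weed seeds sown together; rice seedlings (2.5 leaf) transplanted; diluted emulsion applied to water surface the same day as sowing; plants grown at 25–30 °C in greenhouse; herbicidal effect rated on a 0–5 scale at 3 weeks.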"}, "[13]": {"system": "Apera spica-venti", "experiment": "Test Example 5: herbicidal effect by foliage application, plastic box (symbol L)", "settings": "320 g/ha, 3 weeks after application", "in_short": "as §2"}, "[14]": {"system": "Avena fatua", "experiment": "Test Example 5: herbicidal effect by foliage application, plastic box (symbol I)", "settings": "320 g/ha, 3 weeks after application", "in_short": "as §2"}, "[15]": {"system": "Echinochloa crus-galli var. crus-galli", "experiment": "Test Example 5: herbicidal effect by foliage application, plastic box (symbol H)", "settings": "320 g/ha, 3 weeks after application", "in_short": "as §2"}, "[16]": {"system": "Abutilon theophrasti", "experiment": "Test Example 5: herbicidal effect by foliage application, plastic box (symbol M)", "settings": "320 g/ha, 3 weeks after application", "in_short": "as §2"}, "[17]": {"system": "Stellaria media", "experiment": "Test Example 5: herbicidal effect by foliage application, plastic box (symbol P)", "settings": "320 g/ha, 3 weeks after application", "in_short": "as §2"}}, "data": [{"smiles": "CON=C(C)CC1CC(OC(=O)C(C)(C)CCl)=C(c2c(C)cc(C)cc2C)C1=O", "note": "(centres unmarked) [1-016]", "values": [{"measurement": "N (Amaranthus retroflexus) herbicidal effect grade", "setting": "[1]", "result": "5 (Herbicidal ratio of 90% or more (almost completely withered))"}, {"measurement": "herbicidal effect on D (Leptochloa chinensis), grade 0-5", "setting": "[2]", "result": "5 (Herbicidal ratio of 90% or more (almost completely withered))"}, {"measurement": "O: Chenopodium album, herbicidal effect grade", "setting": "[3]", "result": "2 (Herbicidal ratio of 20% or higher and lower than 40%)"}, {"measurement": "F: Digitaria ciliaris, herbicidal effect grade", "setting": "[4]", "result": "5 (Herbicidal ratio of 90% or more (almost completely withered))"}, {"measurement": "I (Avena fatua) herbicidal effect grade", "setting": "[5]", "result": "5 (Herbicidal ratio of 90% or more (almost completely withered))"}, {"measurement": "d (soybean) effect on crop grade", "setting": "[6]", "result": "3 (Herbicidal ratio of 40% or higher and lower than 70%)"}, {"measurement": "L (Apera spica-venti) herbicidal effect grade", "setting": "[7]", "result": "5 (Herbicidal ratio of 90% or more (almost completely withered))"}, {"measurement": "g: rapeseed, effect on crop grade", "setting": "[8]", "result": "4 (Herbicidal ratio of 70% or higher and lower than 90%)"}, {"measurement": "R: Veronica persica, herbicidal effect grade", "setting": "[9]", "result": "4 (Herbicidal ratio of 70% or higher and lower than 90%)"}, {"measurement": "G (Setaria viridis) herbicidal effect grade", "setting": "[10]", "result": "3 (Herbicidal ratio of 40% or higher and lower than 70%)"}, {"measurement": "f: beet, effect on crop grade", "setting": "[11]", "result": "3 (Herbicidal ratio of 40% or higher and lower than 70%)"}, {"measurement": "Herbicidal effect grade, B: Scirpus juncoides", "setting": "[12]", "result": "5 (Herbicidal ratio of 90% or more (almost completely withered))"}, {"measurement": "L: Apera spica-venti, herbicidal effect grade", "setting": "[13]", "result": "5 (Herbicidal ratio of 90% or more (almost completely withered))"}, {"measurement": "I: Avena fatua, herbicidal effect grade", "setting": "[14]", "result": "5 (Herbicidal ratio of 90% or more (almost completely withered))"}, {"measurement": "H: Echinochloa crus-galli var. crus-galli, herbicidal effect grade", "setting": "[15]", "result": "5 (Herbicidal ratio of 90% or more (almost completely withered))"}, {"measurement": "M: Abutilon theophrasti, herbicidal effect grade", "setting": "[16]", "result": "4 (Herbicidal ratio of 70% or higher and lower than 90%)"}]}, {"smiles": "CON=C(C)CC1CC(OC(=O)C(C)CSC)=C(c2c(C)cc(-c3ccc(Cl)cc3)cc2C)C1=O", "note": "(centres unmarked) [6-086]", "values": [{"measurement": "P: Stellaria media, herbicidal effect (criteria of Test Example 1)", "setting": "[17]", "result": "4 (Herbicidal ratio of 70% or higher and lower than 90%)"}, {"measurement": "Herbicidal effect grade, N: Amaranthus retroflexus", "setting": "[1]", "result": "3 (Herbicidal ratio of 40% or higher and lower than 70%)"}, {"measurement": "herbicidal effect on D (Leptochloa chinensis), grade 0-5", "setting": "[2]", "result": "5 (Herbicidal ratio of 90% or more (almost completely withered))"}, {"measurement": "O: Chenopodium album, herbicidal effect (criteria of Test Example 1)", "setting": "[3]", "result": "5 (Herbicidal ratio of 90% or more (almost completely withered))"}, {"measurement": "F: Digitaria ciliaris, herbicidal effect (criteria of Test Example 1)", "setting": "[4]", "result": "5 (Herbicidal ratio of 90% or more (almost completely withered))"}, {"measurement": "Herbicidal effect grade, I: Avena fatua", "setting": "[5]", "result": "4 (Herbicidal ratio of 70% or higher and lower than 90%)"}, {"measurement": "Effect on crop grade, d: soybean", "setting": "[6]", "result": "5 (Herbicidal ratio of 90% or more (almost completely withered))"}, {"measurement": "g: rapeseed, effect on crop (criteria of Test Example 1)", "setting": "[8]", "result": "4 (Herbicidal ratio of 70% or higher and lower than 90%)"}, {"measurement": "R: Veronica persica, herbicidal effect (criteria of Test Example 1)", "setting": "[9]", "result": "5 (Herbicidal ratio of 90% or more (almost completely withered))"}, {"measurement": "Herbicidal effect grade, G: Setaria viridis", "setting": "[10]", "result": "5 (Herbicidal ratio of 90% or more (almost completely withered))"}, {"measurement": "f: beet, effect on crop (criteria of Test Example 1)", "setting": "[11]", "result": "3 (Herbicidal ratio of 40% or higher and lower than 70%)"}, {"measurement": "Herbicidal effect grade, B: Scirpus juncoides", "setting": "[12]", "result": "2 (Herbicidal ratio of 20% or higher and lower than 40%)"}, {"measurement": "L: Apera spica-venti, herbicidal effect (criteria of Test Example 1)", "setting": "[13]", "result": "5 (Herbicidal ratio of 90% or more (almost completely withered))"}, {"measurement": "I: Avena fatua, herbicidal effect (criteria of Test Example 1)", "setting": "[14]", "result": "5 (Herbicidal ratio of 90% or more (almost completely withered))"}, {"measurement": "H: Echinochloa crus-galli var. crus-galli, herbicidal effect (criteria of Test Example 1)", "setting": "[15]", "result": "5 (Herbicidal ratio of 90% or more (almost completely withered))"}, {"measurement": "M: Abutilon theophrasti, herbicidal effect (criteria of Test Example 1)", "setting": "[16]", "result": "3 (Herbicidal ratio of 40% or higher and lower than 70%)"}]}]}
